Bridges are numbered along the chain shown (N, C = ends). Where no end group is shown, it is not given here.
How the values were obtained:
[1] = test system: anti-ovary antibodies (AOA); test: ELISA on 30 patient sera: correlation of serum reactivity toward crude ovarian antigen and toward each peptide (Example 2); type: binding, human; details: for correlation between reactivity of sera toward ovarian antigen and toward the antigen tested, in words / r value, correlation between reactivity of sera toward ovarian antigen and toward the peptide, IgA AOA / r value, correlation between reactivity of sera toward ovarian antigen and toward the peptide, IgG AOA / r value, correlation between reactivity of sera toward ovarian antigen and toward the peptide, IgM AOA: 30 sera from patients, ELISA; for correlation between reactivity of sera toward ovarian antigen and toward the antigen tested, in words: compared among antigens; for r value, correlation between reactivity of sera toward ovarian antigen and toward the peptide, IgA AOA: isotype IgA; for r value, correlation between reactivity of sera toward ovarian antigen and toward the peptide, IgG AOA: isotype IgG; for r value, correlation between reactivity of sera toward ovarian antigen and toward the peptide, IgM AOA: isotype IgM; for antigenic or immunogenic activity toward anti-ovary antibodies, in words: comparison among oligopeptides, Example 2
Method: (§1) The concentration of molecules to be adsorbed was determined by checkerboard experiments for each antigen. It is about 1 μg per well.
(§2) The binding of the antigens to the solid phase is performed in one night at +4° C. in the amount of 100 μl per well of the solution of antigen in carbonate-bicarbonate buffer. The plate is emptied. The sites of the solid phase still unoccupied are saturated on incubation for one hour at 37° C. with 200 μl per well of 5% powdered milk reconstituted in PBS.
The plate is emptied and washed 3 times in PBS. The samples are distributed in the amount of 100 μl per well. The plate is incubated for 45 minutes at 37° C.
(§3) The anti-isotypes are diluted in the same solution that was used for the dilution of the samples:
(§4) The plate is again emptied and washed 3 times in PBS. Then the anti-isotypes are distributed in the amount of 100 μl per well. The plate is incubated for 45 minutes at 37° C.
(§5) The developer solution is prepared on the spot, as follows for one plate:
(§6) After 3 further washings of the plate, 100 μl of developer solution are distributed into each well. After appearance of a yellow colour of greater or lesser intensity the reaction is stopped with 50 μl of H2SO4. The plate is read on the spectrophotometer at 492 nm using the Multiskan II reader.
Any ratio greater than 1 is considered as positive.
These four peptides obtained in lyophilized form were, after reconstitution and dialysis, used as antigens in a series of ELISA tests on 30 sera from patients.
Moreover, these same sera were tested against the crude ovarian antigens.
The immunoenzymatic technique used is that described in Example 1.

[2] = test system: anti-ovary antibodies; test: Recognition by serums containing anti-ovary antibodies; type: binding
[3] = test system: anti-β-FSH monoclonal antibody 7G5A1; test: Reaction with anti-β-FSH monoclonal antibody 7G5A1; type: binding; details: antibody only recognizing metrodine
[4] = test system: anti-ovary antibodies (AOA); test: ELISA on 295 sera of IVF patients: correlation of reactivity toward total ovarian extract and toward peptide SEQ ID NO:1 (Example 3); type: binding, human; details: for r value, IgA AOA vs IgA SEQ ID No.1: crude ovarian antigen IgA vs peptide IgA
Method: as §1, §2
The samples to be tested are diluted in PBS to which 0.5% BSA and 0.2% Tween 20 have been added: dilution to 1/50 for the search for anti-ovary and anti-corpus luteum antibodies. The plate is emptied and washed 3 times in PBS. The samples are distributed in the amount of 100 μl per well. The plate is incubated for 45 minutes at 37° C.
as §3, §4, §5, §6
The results are firstly expressed as optical density (O.D.) then calculated as ratios relative to a control sample at the limit of positivity. Any ratio greater than 1 is considered as positive.
[…] and ninety-five sera were tested in duplicate, using the immunoenzymatic method described above, with, firstly, the total ovarian extract, and, secondly, the peptide SEQ ID NO: 1. For each antigen, the three immunoglobulin isotypes IgG, IgA and IgM were studied.
The patients included in the study were all scheduled for IVF. Their average age was 32.7±4.2 years. The average duration of the sterility was 4.8±2.8 years.
In 209 cases the serum was collected on the eighth day of the stimulation, and in 84 cases the serum was collected 15 days after the puncture.
The results of the correlation obtained between the reactivity of the sera toward the crude ovarian antigen and that of the same sera toward the peptide SEQ ID NO:1 tested, and expressed by an r value, are shown in Table II below: […]

[5] = test system: anti-β-FSH monoclonal antibodies 22A3G7; 5H3E8; test: Recognition by anti-β-FSH monoclonal antibodies 22A3G7 and 5H3E8; type: binding; details: antibodies immunoreactive with metrodine and ovarian extracts

For “SEQ ID No.1: linear sequence of 16 amino acids corresponding to the sequence of amino acids 78-93 of the β-chain of FSH (VATQCHCGKCDSDSTD; human FSH)”, the “correlation between reactivity of sera toward ovarian antigen and toward the antigen tested, in words” value (from here on “correlation between reactivity … in words”) [1] was “best correlation coefficients”, the “r value, correlation between reactivity of sera toward ovarian antigen and toward the peptide, IgA AOA” value [1] was 0.46 and the “r value, correlation between reactivity of sera toward ovarian antigen and toward the peptide, IgG AOA” value [1] was 0.74. For the same molecule, the “r value, correlation between reactivity of sera toward ovarian antigen and toward the peptide, IgM AOA” value [1] was 0.81, the “antigenic or immunogenic activity toward anti-ovary antibodies, in words” value [1] was “identical activity” and the “recognition by serums containing anti-ovary antibodies” value [2] was “recognized”. The “reaction with anti-β-FSH monoclonal antibody 7G5A1” value [3] was “does not react”, the “r value, IgA AOA vs IgA SEQ ID No.1” value [4] was 0.11 and the “r value, IgA AOA vs IgA SEQ ID No.1” value ([4]; listed as SEQ ID NO:1) was 0.10. For the same molecule, the “r value, IgA AOA vs IgG SEQ ID No.1” value ([4]; crude ovarian antigen IgA vs peptide IgG) was 0.12, the “r value, IgA AOA vs IgM SEQ ID No.1” value ([4]; crude ovarian antigen IgA vs peptide IgM) was 0.01 and the “r value, IgG AOA vs IgA SEQ ID No.1” value ([4]; crude ovarian antigen IgG vs peptide IgA) was 0.12. For the same molecule, the “r value, IgG AOA vs IgG SEQ ID No.1” value ([4]; crude ovarian antigen IgG vs peptide IgG) was 0.18, the “r value, IgM AOA vs IgA SEQ ID No.1” value ([4]; crude ovarian antigen IgM vs peptide IgA) was 0.06 and the “r value, IgM AOA vs IgG SEQ ID No.1” value ([4]; crude ovarian antigen IgM vs peptide IgG) was 0.10. For the same molecule, the “r value, IgM AOA vs IgM SEQ ID No.1” value ([4]; crude ovarian antigen IgM vs peptide IgM) was 0.27 and the “recognition by anti-β-FSH monoclonal antibodies 22A3G7; 5H3E8” value [5] was “recognized”.

With “SEQ ID No.2: sequence of 16 amino acids, bridged by a disulfide bond in position 5 and 7, amino acids 78-93 of the β-chain of FSH (VATQCHCGKCDSDSTD; disulfide 5-7)” the “r value, correlation between reactivity of sera toward ovarian antigen and toward the peptide, IgA AOA” value [1] was 0.28, the “r value, correlation between reactivity of sera toward ovarian antigen and toward the peptide, IgG AOA” value [1] was 0.44 and the “r value, correlation between reactivity of sera toward ovarian antigen and toward the peptide, IgM AOA” value [1] was 0.75. The “antigenic or immunogenic activity toward anti-ovary antibodies, in words” value [1] was “weaker activity”.

For “SEQ ID No.3: sequence of 16 amino acids, bridged by a disulfide bond in position 5 and 10, amino acids 78-93 of the β-chain of FSH (VATQCHCGKCDSDSTD; disulfide 5-10)”, the “r value, correlation between reactivity of sera toward ovarian antigen and toward the peptide, IgA AOA” value [1] was 0.49, the “r value, correlation between reactivity of sera toward ovarian antigen and toward the peptide, IgG AOA” value [1] was 0.79 and the “r value, correlation between reactivity of sera toward ovarian antigen and toward the peptide, IgM AOA” value [1] was 0.71. The “antigenic or immunogenic activity toward anti-ovary antibodies, in words” value [1] was “weaker activity”.

In the case of “SEQ ID No.4: sequence of 16 amino acids, bridged by a disulfide bond in position 7 and 10, amino acids 78-93 of the β-chain of FSH (VATQCHCGKCDSDSTD; disulfide 7-10)”, the “r value, correlation between reactivity of sera toward ovarian antigen and toward the peptide, IgA AOA” value [1] is reported as 0.49, the “r value, correlation between reactivity of sera toward ovarian antigen and toward the peptide, IgG AOA” value [1] is reported as 0.59 and the “r value, correlation between reactivity of sera toward ovarian antigen and toward the peptide, IgM AOA” value [1] is reported as 0.69. For the same molecule, the “antigenic or immunogenic activity toward anti-ovary antibodies, in words” value [1] was “weaker activity”.

With “TQCHCGKC (cysteine pairing not given here) [SEQ ID No.5]” the “correlation between reactivity … in words” value [1] was “same results as those obtained for the peptide SEQ ID No.1”, the “antigenic or immunogenic activity toward anti-ovary antibodies, in words” value [1] was “identical activity” and the “recognition by serums containing anti-ovary antibodies” value [2] was “recognized”. The “reaction with anti-β-FSH monoclonal antibody 7G5A1” value [3] was “does not react” and the “recognition by anti-β-FSH monoclonal antibodies 22A3G7; 5H3E8” value [5] was “recognized”.

B1: β-chain of FSH: β-chain (β-subunit) of follicle stimulating hormone (protein)
chain: NSCELTNITIAIEKEECRFCISINTTWCAGYCYTRDLVYKDPARPKIQKTCTFKELVYETVRVPGCAHHADSLYTYPVATQCHCGKCDSDSTDCTVRGLGPSYCSFGEMKE
B1 was tested, and the “correlation between reactivity … in words” value [1] was “same results as those obtained for the peptide SEQ ID No.1”.

Source: US6602853B1, “Antigenic peptides reacting with anti-ovary antibodies” (Bio Merieux, priority 1996, dated 2003)
